One data set has as its system HepG2.2.15 cells. The data set can be described thus: Cytotoxicity determination in HepG2.2.15 cells (CCK-8 assay). Format: cell-based. The following applies: 6 days treatment, CCK-8, highest concentration 100 uM. The protocol:
(§1) HepG2.2.15 (the HepG2.2.15 cell line can be produced by transfection of the HepG2 cell line as described in Sells, Chen, and Acs 1987 (Proc. Natl. Acad. Sci. USA 84: 1005-1009), and the HepG2 cell line is available from ATCC® under number HB-8065™)
(§2) HepG2.2.15 cells were plated into 96-well plate in 2% FBS culture medium at the density of 40,000 cells/well and 5,000cells/well for HBV inhibitory activity and cytotoxicity determination, respectively. After incubation at 37° C., 5% CO2 overnight, cells were treated with medium containing compounds for 6 days with medium and compounds refreshed after 3 days of treatment. Each compound was tested in a 1:3 serial dilutions at 8 different concentrations in triplicate. The highest concentration of the compounds was 10 uM or 1 uM for anti-HBV activity assay and 100 uM for cytotoxicity determination.
(§3) Cell viability was determined by CCK-8 assay. After 6 days of compounds treatment, 20 μl CCK-8 reagents were added to each well of cytotoxicity assay plates. Cell plates were incubated at 37° C., 5% CO2 for 2.5 h. The absorbance at 450 nm wavelength and the absorbance at 630 nm wavelength as reference was measured.
(§4) EC50 and CC50 values are calculated by the […] PRISM software.
(Tetrazolium dyes change colour on reduction, which living cells bring about.)

The test system of the next data set is HBV. The data set can be described thus: Anti-viral assay in HepG2.2.15 cells: anti-HBV activity, HBV DNA in culture medium by qPCR. Format: cell-based. The following applies: HepG2.2.15 cells, 6 days treatment, HBV DNA by qPCR, read-out: EC50. The protocol: as §1, §2
The change of HBV DNA level induced by the compounds was assessed by quantitative real-time polymerase chain reaction (qPCR). Briefly, the HBV DNA in the culture medium was extracted using QIAamp 96 DNA Blood Kit according to the manual and then quantified by real-time PCR assay using the primers and probe in the table 1 below.
as §4
On the technique in general: In qPCR the cycle at which signal appears reflects the starting amount.

A further data set deals with human hepatocytes. The experiment in a line: Metabolic stability of test compound in human hepatocyte cell. Format: in vitro ADME. The following applies: human hepatocytes. As to the method: • 1. The cryopreserved human hepatocytes cells were thawed in 37° C. water bath and diluted with pre-warmed incubation medium to a working cell density of 1×10^6 viable cells/mL. • 2. The 198 μL pre-warmed hepatocyte suspensions were spiked with 2 μL of 100 μM compound or reference compound(Verapamil) at a final concentration of 1.0 μM in a 96-well plate. The plate was incubated at 37° C., 900 rpm. All incubations will be performed in singlet. • 3. 25 μL aliquots of well contents were collected at time points of 0, 15, 30, 60, 90 and 120 minutes. The reactions were stopped by the addition of 6-fold volumes of cold acetonitrile with internal standards. • 4. After centrifugation for 25 minutes at 3,220 g. Aliquot of 100 μL of the supernatant was mixed with 100 μL of ultra-pure H2O and then used for LC-MS/MS analysis.
All calculations were carried out using Microsoft Excel. Peak areas were determined from extracted ion chromatograms. Determine the in vitro half-life (t1/2) of parent compound by regression analysis of the percent parent disappearance vs. time curve.
The in vitro half-life (in vitro t1/2) is determined from the slope value k:
Conversion of the in vitro t1/2(in min) into the in vitro intrinsic clearance (in vitro CLint, in μL/min/10^6 cells) is done using the following equation:
V=incubation volume (0.2 mL);
N=number of hepatocytes per well (0.2×10^6 cells).
Conversion of the in vitro t1/2(in min) into the scale-up intrinsic clearance (CLint(liver), in mL/min/kg) was done using the following equation:
CLint(liver)=kV/N×scaling factor

A short description of data set [1]: Pharmacokinetic and tissue distribution study via intravenous and oral administration in male C57BL/6 mice. The data set is classed as in vivo. As to the method: Male C57BL/6 mice with a weight range of 20-25 g (Hua Fu Kang, China) were used. Animals were fasted overnight and free access to food 4 hours after dosing.
Test compound (correction factor: 1.00) was dissolved in a 20% hydroxypropyl-β-cyclodextrin (HP-β-CD) at a final concentration of 1 mg/ml for the intravenous (IV) formulation and at final concentrations of 0.5 mg/ml for the oral (PO) formulation. The intravenous formulation was dosed at 2 ml/kg to obtain a dose of 2 mg/kg. The oral formulations were dosed at 10 ml/kg to obtain final doses of 5 mg/kg.
Blood samples were taken at 7 and 20 min, 1, 2, 4, 8 and 24 h after intravenous dose administration. Blood and liver samples were taken at 30 min, 1, 2, 4, 8, 12 and 24 h after oral dose administration.
Approximately 0.020 mL blood will be collected into BD blood collection tubes containing K3-EDTA at each time point. Samples were placed immediately on melting ice and plasma was obtained following centrifugation at 4° C. for 5 minutes at approximately 4000×g. Plasma samples were adjusted to pH 3-4 by phosphoric acid and stored at −75±15° C. prior to analysis. The whole process was completed within 1 hour.
Liver samples were collected at adopted time point, and the vial containing the tissues sample was snap-frozen in liquid nitrogen right away and kept at −75±15° C. prior to analysis. All liver samples were weighed and homogenized with phosphoric acid solution (pH to 3-4) by liver weight (g) to phosphoric acid solution volume (mL) ratio 1:4 before analysis.
Plasma and liver samples were analyzed using LC-MS/MS methods. The lower limit of quantification (LLOQ) for plasma was 1.0 ng/ml and for liver was 2.5 ng/g. A non-compartmental analysis using the “Linear up log down” rule was used for all data. A limited pharmacokinetic analysis was performed using Phoenix™ Professional (Version 6.1).

Data set [2] in a line: Cytotoxicity determination in HepG2.2.15 cells (CCK-8 assay). The data set is classed as cell-based. The following applies: human, 6 days treatment, CCK-8, highest concentration 100 uM. The protocol: as §1, §2, §3, §4
Where [3] appears, read: mice plasma, IV, nominal 2 mg/kg.
[4] abbreviates: Hepatitis B virus, HepG2.2.15, 144 h.

Structures are written as SMILES. pEC50: −log10 of the molar value. Where two headings read alike, the source gives them in different places.

The CC50 is the concentration at which the toxic effect on the cells reaches its halfway point. For orientation: pEC50 means the negative decadic logarithm of the EC50, by convention in mol/L.

In the case of `CCOC(=O)C1=C(CN2CCN3C(=S)N(CC4(C(=O)O)CC4)CC3C2)NC(c2nccs2)=N[C@H]1c1cccc(F)c1C` (single isomer, unassigned) [Compound 9B], the CC50 with HepG2.2.15 cells came to 14.6 µM. Also, in the data set with HBV, the pEC50 was 9.15.

`CCOC(=O)C1=C(CN2CCN3C(=S)N([C@@H]4CC[C@H](C(=O)O)C4)CC3C2)NC(c2nccs2)=N[C@H]1c1cccc(F)c1C` (single isomer, unassigned) [Compound 24B] had a CC50 in the data set with HepG2.2.15 cells of 9.6 µM. Moreover, the pEC50 in the data set with HBV is 9.00.

In the data set with HepG2.2.15 cells, `CCOC(=O)C1=C(CN2CCN3C(=S)N(CC(C)C(=O)O)C[C@@H]3C2)NC(c2nccs2)=N[C@H]1c1cccc(F)c1C` (single isomer, unassigned) [Compound 27B] came in with a CC50 of 25.3 µM. For the same compound, the pEC50 in the data set on HBV is 8.59.

`CCOC(=O)C1=C(CN2CCN3C(=S)N(C[C@@H](C)C(=O)O)C[C@@H]3C2)NC(c2ncoc2C)=NC1c1cccc(F)c1C` (single isomer, unassigned) [Compound 32B, 3-(7-((5-(Ethoxycarbonyl)-6-(3-fluoro-2-methylphenyl)-2-(5-methyloxazol-4-yl)-3,6-dihydropyrimidin-4-yl)methyl)-3-thioxohexahydroimidazo[1,5-a]pyrazin-2(3H)-yl)-2-methylpropanoic acid] had a CC50 in the data set on HepG2.2.15 cells of 42.5 µM. Further, the pEC50 in the data set with HBV was 7.56.

Compound `COC(=O)C1=C(CN2CCN3C(=S)N(CC(C)(C)C(=O)O)CC3C2)NC(c2nccs2)=NC1c1ccc(F)cc1Cl` (single isomer, unassigned) [Compound 4A, 3-(7-((6-(2-chloro-4-fluorophenyl)-5-(methoxycarbonyl)-2-(thiazol-2-yl)-3,6-dihydropyrimidin-4-yl)methyl)-3-thioxohexahydroimidazo[1,5-a]pyrazin-2(3H)-yl)-2,2-dimethylpropanoic acid] gave a CC50 in the data set with HepG2.2.15 cells of 52.8 µM. The pEC50 with HBV was 7.31.

`CCOC(=O)C1=C(CN2CCN3C(=S)N(C)C[C@@H]3[C@H]2C(=O)O)NC(c2nccs2)=N[C@H]1c1cccc(F)c1C` (single isomer, unassigned) [Compound 35B] showed a 50% cytotoxic concentration (CC50) with HepG2.2.15 cells of 46.6 µM. The pEC50 with HBV was 8.96.

Compound `CCOC(=O)C1=C(CN2CCN3C(=S)N([C@H]4CC[C@@H](C(=O)O)C4)CC3C2)NC(c2nccs2)=N[C@H]1c1cccc(F)c1C` (single isomer, unassigned) [Compound 24D] yielded a CC50 in the data set on HepG2.2.15 cells of 9.4 µM. In the data set on HBV, the pEC50 was 7.46.

Turning to `CCOC(=O)C1=C(CN2CCN3C(=S)N(CC(C)(C)C(=O)O)CC3C2)NC(c2nccs2)=N[C@H]1c1cccc(F)c1C` (single isomer, unassigned) [Compound 1B], the CC50 with HepG2.2.15 cells came out at 22.4 µM. The pEC50 in the data set with HBV is 7.37.

`CCOC(=O)C1=C(CN2CCOCC2)NC(c2nccs2)=NC1c1ccc(F)cc1Br` (centres unmarked) [Reference 1, GLS4, reference compound] showed a T½ in the data set on human hepatocytes (1.0 μM, 0-120 min) of 15.3 min. In addition, in the data set on human hepatocytes (scale-up intrinsic clearance, scaling factor 2544.3), the “Clint (liver)” value worked out at 115.3 mL/min/kg. In data set [1] (mice liver, PO), the “Liver AUCinf/Dose” value was 69.2 ng·kg·h/g/mg and the “Liver Cmax/Dose” value is 5.1 kg·ng/mg/mL. Moreover, in data set [1] (setting [3]), the “IV AUCinf/Dose” value came to 232.5 ng·kg·h/mg/mL and the “IV Cl” value is 73.9 mL/min/kg. In addition, the “PO AUCinf/Dose” value in data set [1] (mice plasma, PO) came to 17.3 ng·kg·h/mg/mL. Besides, the “PO Cmax” value in data set [1] (mice plasma, PO, dose per compound in table (5.28-9.95 mg/kg)) was 14.5 ng/mL. In data set [1] (mice, PO vs IV), this compound came in with an F of 7.5%.

Take `CCOC(=O)C1=C(CN2CCN3C(=S)N(CC4(C(=O)O)CC4)CC3C2)NC(c2nccs2)=NC1c1cccc(F)c1Cl` (centres unmarked) [Compound 5, 1-((7-((6-(2-Chloro-3-fluorophenyl)-5-(ethoxycarbonyl)-2-(thiazol-2-yl)-3,6-dihydropyrimidin-4-yl)methyl)-3-thioxohexahydroimidazo[1,5-a]pyrazin-2(3H)-yl)methyl)cyclopropanecarboxylic acid]: in data set [2], the CC50 at 6 days amounted to 11.8 µM. For the same compound, in the data set on HBV (setting [4]), the pEC50 is 8.77.

For `COC(=O)C1=C(CN2CCN3C(=S)N(CC(C)(C)C(=O)O)C[C@@H]3C2)NC(c2nccs2)=N[C@H]1c1cccc(F)c1Cl` (single isomer, unassigned) [Compound 20A, 3-(7-((6-(2-chloro-3-fluorophenyl)-5-(methoxycarbonyl)-2-(thiazol-2-yl)-3,6-dihydropyrimidin-4-yl)methyl)-3-thioxohexahydroimidazo[1,5-a]pyrazin-2(3H)-yl)-2,2-dimethylpropanoic acid], the CC50 at 6 days in data set [2] was found to be 16.4 µM. Besides, the pEC50 in the data set on HBV (setting [4]) was 8.46.

For `CCOC(=O)C1=C(CN2CCN3C(=S)N(CC(C)(C)C(=O)O)CC3C2)NC(c2ncoc2C)=NC1c1cccc(F)c1C` (single isomer, unassigned) [Compound 26A, 3-(7-((5-(Ethoxycarbonyl)-6-(3-fluoro-2-methylphenyl)-2-(5-methyloxazol-4-yl)-3,6-dihydropyrimidin-4-yl)methyl)-3-thioxohexahydroimidazo[1,5-a]pyrazin-2(3H)-yl)-2,2-dimethylpropanoic acid], the CC50 at 6 days in data set [2] is 26.2 µM. Also, the pEC50 in the data set with HBV (setting [4]) was 7.88.

With `CCOC(=O)C1=C(CN2CCN3C(=S)N(CC(C)(C)C(=O)O)CC3C2)NC(c2nccs2)=NC1c1ccc(F)c(F)c1Cl` (centres unmarked) [Compound 14, 3-(7-((6-(2-Chloro-3,4-difluorophenyl)-5-(ethoxycarbonyl)-2-(thiazol-2-yl)-3,6-dihydropyrimidin-4-yl)methyl)-3-thioxohexahydroimidazo[1,5-a]pyrazin-2(3H)-yl)-2,2-dimethylpropanoic acid], the CC50 at 6 days in data set [2] was 10.6 µM. In the data set with HBV (setting [4]), the pEC50 is 8.23.

For `CCOC(=O)C1=C(CN2CCN3C(=S)N(CC(C)(C)C(=O)O)C[C@@H]3C2)NC(c2nccs2)=N[C@@H]1c1ccc(F)nc1C` (single isomer, unassigned) [Compound 37, 3-(7-((5-(ethoxycarbonyl)-6-(6-fluoro-2-methylpyridin-3-yl)-2-(thiazol-2-yl)-3,6-dihydropyrimidin-4-yl)methyl)-3-thioxohexahydroimidazo[1,5-a]pyrazin-2(3H)-yl)-2,2-dimethylpropanoic acid], the CC50 at 6 days in data set [2] was no less than 100 µM. In addition, the pEC50 in the data set on HBV (setting [4]) was 7.00.

The values are drawn from patent US20230165865A1, “HETEROARYLDIHYDROPYRIMIDINE DERIVATIVES AND METHODS OF TREATING HEPATITIS B INFECTIONS” (Janssen Pharmaceutica NV, priority 2018, published 2023).
